The source of these data is PMC6353850, “Supersensitive Odorant Receptor Underscores Pleiotropic Roles of Indoles in Mosquito Ecology” (Frontiers in Cellular Neuroscience, 2019).

Where two headings read alike, the source gives them in different places.

Data set [1] concerns OR02-ORco. Also on record: method as in Pelletier et al., 2010. Particulars: Culex quinquefasciatus OR02-ORco; kairomone receptor; ref Pelletier et al., 2010; cited from earlier work.
Data set [2] deals with T1, AaegOR9 (Aedes aegypti, UniProt Q177X5). Put plainly: Two-electrode voltage clamp of Xenopus oocytes expressing AaegOR9-ORco (tuning curve and concentration-response). The conditions noted are these: for Ligand potency in AaegOR9 tuning curve (in words) / AaegOR9 response relative to indole (tuning curve): 500 nM odorant; for Ligand potency in AaegOR9 tuning curve (in words): panel of 31 indole derivatives; for Rank according to potency (No.): AaegOR9 tuning curve of Figure 1, 500 nM, 1 = most potent of 31; for AaegOR9 response relative to indole (tuning curve): responses normalized to indole, n = 10. It counts as cell-based. The method, then: The methodologies and protocols have been described in details elsewhere (Bohbot and Dickens, [2009]). AaegOr9 and Aaeg-ORco cRNAs (Bohbot et al., [2011]) were synthesized from linearized pSP64DV expression vectors using the mMESSAGE mMACHINE® SP6 kit (Life Technologies). Stage V-VII oocytes were harvested from Xenopus laevis females, mechanically separated, treated with collagenase (8 mg/mL, 30 min, 18°C) and rinsed in washing solution (96 mM NaCl, 2 mM KCl, 5 mM MgCl2 and 5 mM HEPES, pH 7.6). Oocytes were microinjected with 27.6 ng AaegOr9 and AaegORco cRNAs, incubated at 18°C for 3–4 days in ND96 solution (96 mM NaCl, 2 mM KCl, 5 mM MgCl2, 0.8 mM CaCl2 and 5 mM HEPES, pH 7.6), supplemented with 5% dialyzed horse serum, 50 μg/mL tetracycline, 100 μg/mL streptomycin and 550 μg/mL sodium pyruvate. Whole-cell currents were recorded using the two-microelectrode voltage-clamp technique. During recording sessions, the holding potential was maintained at −80 mV using an OC-725C oocyte clamp (Warner Instruments, LLC, Hamden, CT, USA). Oocytes placed in a RC-3Z oocyte recording chamber (Warner Instruments, LLC, Hamden, CT, USA) were exposed to odorants for 8 s. Current was allowed to return to baseline between odorant applications. Data acquisition and concentration-response analyses were carried out with a Digidata 1550A and the pCLAMP10 software (Molecular Devices, Sunnyvale, CA, USA), and analyzed using GraphPad Prism 7 (GraphPad Software Inc., La Jolla, CA, USA). Stock concentration of odorants (10^−2 M) were dissolved in ringer solution containing 2% dimethyl sulfoxide (DMSO) in order to solubilize the hydrophobic indolic compounds.
T1 sequence (Q178U6 whole entry): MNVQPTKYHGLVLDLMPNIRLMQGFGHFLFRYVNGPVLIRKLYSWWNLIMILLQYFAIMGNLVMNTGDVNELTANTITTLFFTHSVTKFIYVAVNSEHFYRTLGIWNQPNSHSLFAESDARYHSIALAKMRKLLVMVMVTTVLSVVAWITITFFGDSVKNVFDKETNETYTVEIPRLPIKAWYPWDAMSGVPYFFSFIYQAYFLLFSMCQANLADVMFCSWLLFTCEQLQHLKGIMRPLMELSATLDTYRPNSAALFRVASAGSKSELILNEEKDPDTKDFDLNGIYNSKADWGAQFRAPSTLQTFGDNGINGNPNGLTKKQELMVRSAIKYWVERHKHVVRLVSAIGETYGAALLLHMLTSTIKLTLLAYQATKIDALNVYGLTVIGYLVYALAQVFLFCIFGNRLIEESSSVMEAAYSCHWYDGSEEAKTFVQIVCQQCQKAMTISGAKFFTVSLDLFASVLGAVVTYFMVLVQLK
T1 sequence (Q177X5 entry or part of it): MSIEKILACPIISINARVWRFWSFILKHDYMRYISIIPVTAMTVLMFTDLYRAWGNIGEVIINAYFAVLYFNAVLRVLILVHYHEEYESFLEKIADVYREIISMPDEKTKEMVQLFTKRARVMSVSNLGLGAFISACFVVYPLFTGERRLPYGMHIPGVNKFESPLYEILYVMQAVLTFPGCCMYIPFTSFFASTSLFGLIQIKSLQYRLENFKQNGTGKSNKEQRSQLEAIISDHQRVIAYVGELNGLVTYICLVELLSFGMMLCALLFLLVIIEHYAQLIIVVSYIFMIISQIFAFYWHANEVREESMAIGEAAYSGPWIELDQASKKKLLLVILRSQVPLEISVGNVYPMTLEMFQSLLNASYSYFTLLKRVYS
The response profile was established using multiple sessions, each including six compounds at a time and indole as an internal reference. […] All the response values were normalized to the indole reference in each recording session (Supplementary Figure 1).
For the establishment of the concentration-response curves, oocytes were exposed to increasing concentrations of indole, skatole and indole-3-carboxaldehyde (I3C; Supplementary Figure 2). Quantitative characterization of OR sensitivity was estimated using the averaged effective concentration at 50% of the maximal response (EC50) over the sample population. The data to establish the concentration response curve and EC50 of AaegOR10-skatole was extracted from a previous study (Bohbot and Dickens, [2012]).
We also included indole and skatole as references (Bohbot et al., [2011]). The screen was carried out using a low odorant concentration (500 nM) in order to mitigate the caveats associated with high ligand concentrations, including receptor adaptation, antagonist effects and technical artifacts such as broad molecular receptive ranges (Bohbot and Pitts, [2015]).
In general terms: Two-electrode voltage clamp holds a large cell at a set potential and records current.

In data set [3] the test system is OR02-ORco. Also on record: method as in Wang et al., 2010. The conditions noted are these: Anopheles gambiae OR02-ORco; kairomone receptor; ref Wang et al., 2010; cited from earlier work.
The subject of data set [4] is OR02-ORco. Details: method as in Bohbot et al., 2011. The conditions noted are these: Aedes aegypti OR02-ORco; kairomone receptor; ref Bohbot et al., 2011; cited from earlier work.
In data set [5] the target is T1, AaegOR9. Details: method as in Bohbot et al., 2011. The conditions noted are these: ref Bohbot et al., 2011; cited from earlier work.
The nature of data set [6]: Water solubility. Particulars: skatole vs indole. It counts as physicochemical.
Data set [7] concerns AaegOR10. Particulars: Aedes aegypti OR10-ORco; kairomone receptor; ref Bohbot et al., 2012; cited from earlier work.
For data set [8], the system named is OR10-ORco. Also on record: method as in Hughes et al., 2010. Particulars: Culex quinquefasciatus OR10-ORco; kairomone receptor; ref Hughes et al., 2010; cited from earlier work.

On to `c1ccc2[nH]ccc2c1` [indole, 1H-indole], for which the EC50 in data set [1] was 280 nM; in data set [3], 167 nM; in data set [4], 370 nM. Further, the “Ligand potency in AaegOR9 tuning curve (in words)” value in data set [2] is on record as “next most potent ligands”. Also, the “Rank according to potency (No.)” value in data set [2] came to 3. Besides, in data set [5], the “Concentration range activating AaegOR9” value is reported as “low micromolar”.

For the molecule `Cc1c[nH]c2ccccc12` [skatole, 3-methylindole], in data set [6], the “Water solubility relative to indole” value is “seven times less water soluble”. Besides, the “Ligand potency in AaegOR9 tuning curve (in words)” value in data set [2] is listed as “most potent ligand”. For the same molecule, the “AaegOR9 response relative to indole (tuning curve)” value in data set [2] was “five times higher than indole”; in data set [2] (listed as Skatole) it was “five times more potent than indole”. For the same molecule, the EC50 was roughly 5 nM in data set [2] (AaegOR9, concentrations 100 pM to 10 μM); 4.8 nM in data set [2] (Aedes aegypti OR9-ORco, kairomone receptor, This study); 109 nM in data set [7]; 90 nM in data set [8]. Also, in data set [2] (AaegOR9, skatole vs indole), the “Fold higher sensitivity of AaegOR9 to skatole than to indole (EC50 ratio)” value is 176. For the same molecule, in data set [2], the “Rank according to potency (No.)” value was 1. In addition, the “Concentration range activating AaegOR9” value in data set [2] (selective and reversible activation) is “high picomolar (below 1 nM) to low nanomolar (between 1 and 10 nM)”.

In general, EC50 refers to the midpoint of the concentration-response curve.
